This is an account of results in patent publication USRE39197E1, “Cell adhesion-inhibiting antiinflammatory and immune-suppressive compounds” (Abbott Laboratories, priority 1998, dated 2006).

Assay [1] addresses T1, interaction between the integrin LFA-1 and its adhesion partner ICAM-1 (Homo sapiens, UniProt P20701).
T1 construct: Recombinant LFA-1 (100 μL of 0.7 μg/ml mL, ICOS Corporation) in D-PBS; purchased ICOS Corporation
Put plainly: ICAM-1/LFA-1 Biochemical Interaction Assay. The assay is classed as binding. The conditions noted are these: 4 μM compound; recombinant LFA-1, biotinylated ICAM-1/Ig. The procedure: Compounds that antagonize the interaction between ICAM-1 and LFA-1 can be identified, and their activities quantitated, using both biochemical and cell-based adhesion assays. A primary biochemical assay measures the ability of the compound in question to block the interaction between the integrin LFA-1 and its adhesion partner ICAM-1, as described below:
ICAM-1/LFA-1 Biochemical Interaction Assay
In the biochemical assay, 100 μL of anti-LFA-1 antibody (ICOS Corporation) at a concentration of 5 μg/ml mL in Dulbecco's phosphate-buffered saaline (D-PBS) is used to coat wells of a 96-well microtiter plate overnight at 4° C. The wells are were then washed twice with wash buffer (D-PBS w/o Ca^++ or Mg^++, 0.05% Tween 20) and blocked by addition of 200 μL of D-PBS, 5% fish skin gelatin. Recombinant LFA-1 (100 μL of 0.7 μg/ml mL, ICOS Corporation) in D-PBS is was then added to each well. Incubation continues continued for 1 hour at room temperature and the wells are were washed twice with wash buffer. Serial dilutions of compounds being assayed as ICAM-1/LFA-1 antagonists, were prepared as 10 mM stock solutions in dimethyl sulfoxide (DMSO), are were diluted in D-PBS, 2 mM MgCl2, 1% fish skin gelatin and 50 μL of each dilution was added to duplicate wells. This is was followed by the addition of 50 μL of 0.8 μg/ml mL biotinylated recombinant ICAM-1/Ig (ICOS Corporation) to the wells and the plates are were incubated at room temperature for 1 hour. The wells are were then washed twice with wash buffer and 100 μL of Europium-labeled Streptavidin (Wallac Oy) diluted 1:100 in Delfia assay buffer (Wallac Oy), are was then added to the wells. Incubation proceeds proceeded for 1 hour at room temperature. The wells are were washed eight times with wash buffer and 100 μL of enhancement solution (Wallac Oy, cat. No. 1244-105) are was added to each well. Incubation proceeds proceeded for 5 minutes with constant mixing. Time-resolved fluorimetry measurements are were made using the a Victor 1420 Multilabel Counter (Wallac Oy) and the percent inhibition of each candidate compound is was calculated using the following equation: [formula] where “background” refers to wells that are were not coated with anti-LFA-1 antibody.

Assay [2] deals with adherence of JY-8 cells (expressing LFA-1) to immobilized ICAM-1. Put plainly: ICAM-1/JY-8 Cell Adhesion Assay. It is filed as cell-based, human. How it is done:
ICAM-1/JT-8 Cell Adhesion Assay
For measurment measurement of inhibotory inhibitory activity in the cell-based adhesion assay, 96-well microtiter plates are were coated with 70 μL of recombinat recombinant ICAM-1/Ig (ICOS Corporation) at a concentration of 5 μg/mL in D-PBS w/o without Ca^++ or Mg++ or Mg^++ overnight at 4° C. The wells are were then washed twice with D-PBS and blocked by addition of 200 μL of D-PBS, 5% fish skin gelatin by incubation for 1 hour at room temperature. […] The percent inhibition of a candidate compound at a given concentration is was calculated using the following equation: [formula] and these concentration/inhibition data are were used to generate does response curves, from which IC50 values are were derived.

The mark [3] stands for this setting: Homo sapiens, JY-8, JY-8 cells on immobilized ICAM-1/Ig.
Setting [4] is: JY-8 cells on immobilized ICAM-1/Ig.

Each structure is given as a SMILES string.

T1 sequence (P20701 26-1170): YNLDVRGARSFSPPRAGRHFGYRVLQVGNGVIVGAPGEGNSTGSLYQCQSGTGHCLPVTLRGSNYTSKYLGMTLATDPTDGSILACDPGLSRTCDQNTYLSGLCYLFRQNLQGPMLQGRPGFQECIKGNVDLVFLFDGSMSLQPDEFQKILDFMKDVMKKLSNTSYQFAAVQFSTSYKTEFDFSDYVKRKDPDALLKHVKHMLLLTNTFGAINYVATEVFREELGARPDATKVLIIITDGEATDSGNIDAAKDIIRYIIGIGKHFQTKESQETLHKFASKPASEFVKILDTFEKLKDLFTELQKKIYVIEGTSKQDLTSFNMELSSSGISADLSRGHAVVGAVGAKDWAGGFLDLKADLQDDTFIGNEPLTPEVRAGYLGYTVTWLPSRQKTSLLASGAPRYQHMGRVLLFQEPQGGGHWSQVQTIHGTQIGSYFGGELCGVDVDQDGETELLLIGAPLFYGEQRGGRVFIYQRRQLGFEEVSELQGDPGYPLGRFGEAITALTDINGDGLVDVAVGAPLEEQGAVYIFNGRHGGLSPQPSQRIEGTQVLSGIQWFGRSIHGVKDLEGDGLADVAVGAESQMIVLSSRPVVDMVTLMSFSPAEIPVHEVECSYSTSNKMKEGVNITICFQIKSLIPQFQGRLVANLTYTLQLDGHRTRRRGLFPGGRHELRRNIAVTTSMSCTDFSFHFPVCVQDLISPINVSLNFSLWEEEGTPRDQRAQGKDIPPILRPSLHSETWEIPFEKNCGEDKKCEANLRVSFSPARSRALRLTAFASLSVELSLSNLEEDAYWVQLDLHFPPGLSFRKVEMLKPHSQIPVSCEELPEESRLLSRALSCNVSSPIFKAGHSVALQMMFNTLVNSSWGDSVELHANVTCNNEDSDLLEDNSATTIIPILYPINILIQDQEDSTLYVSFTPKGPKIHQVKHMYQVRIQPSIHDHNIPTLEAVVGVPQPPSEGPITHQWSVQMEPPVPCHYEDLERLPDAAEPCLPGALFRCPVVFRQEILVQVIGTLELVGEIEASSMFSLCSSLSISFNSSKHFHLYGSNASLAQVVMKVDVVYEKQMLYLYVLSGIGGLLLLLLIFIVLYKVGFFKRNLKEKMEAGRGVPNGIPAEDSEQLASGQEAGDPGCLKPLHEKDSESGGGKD
T1 sequence (P05107 23-769 partner): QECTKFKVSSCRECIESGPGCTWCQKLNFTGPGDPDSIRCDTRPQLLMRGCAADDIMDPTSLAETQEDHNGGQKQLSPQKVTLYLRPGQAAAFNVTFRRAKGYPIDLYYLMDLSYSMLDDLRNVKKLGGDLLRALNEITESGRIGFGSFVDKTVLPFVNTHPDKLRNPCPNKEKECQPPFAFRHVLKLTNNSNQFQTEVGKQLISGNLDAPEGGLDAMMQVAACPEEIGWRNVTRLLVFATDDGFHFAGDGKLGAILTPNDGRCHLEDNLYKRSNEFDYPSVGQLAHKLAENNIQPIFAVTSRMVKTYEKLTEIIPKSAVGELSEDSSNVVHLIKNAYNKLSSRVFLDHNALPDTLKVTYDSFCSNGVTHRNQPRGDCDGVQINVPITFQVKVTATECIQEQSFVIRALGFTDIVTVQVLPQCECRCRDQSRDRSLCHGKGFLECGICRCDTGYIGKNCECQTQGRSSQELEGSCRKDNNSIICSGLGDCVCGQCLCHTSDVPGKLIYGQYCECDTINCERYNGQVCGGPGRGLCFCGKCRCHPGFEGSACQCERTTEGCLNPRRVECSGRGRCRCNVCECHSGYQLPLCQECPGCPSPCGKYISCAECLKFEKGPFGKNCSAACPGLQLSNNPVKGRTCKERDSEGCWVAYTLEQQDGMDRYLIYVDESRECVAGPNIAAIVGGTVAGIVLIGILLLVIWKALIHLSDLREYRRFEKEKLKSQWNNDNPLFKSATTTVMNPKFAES

One may read the inhibition as how much of the control response was suppressed. The IC50 is the concentration needed to halve the response being measured. A lower IC50 goes with greater potency in that assay. With `O=C(C(=O)N1CCN(C(=O)/C=C/c2ccc(Sc3ccc(Cl)cc3Cl)c([N+](=O)[O-])c2)CC1)c1ccco1` [Example 38, (2,4-Dichlorophenyl)[2-nitro-4-(E-((4-(2-furoylcarbonyl)piperazin-1-yl)carbonyl)ethenyl)phenyl]sulfide], the inhibition at 4 µM in assay [1] was found to be 91%. In assay [2] (setting [3]), this compound displayed an IC50 of 250 nM.

Take `CS(=O)(=O)N1CCN(C(=O)/C=C/c2ccc(Sc3ccc(Cl)cc3Cl)c([N+](=O)[O-])c2)CC1` [Example 39, (2,4-Dichlorophenyl)[2-nitro-4-(E-((4-(methanesulfonyl)piperazin-1-yl)carbonyl)ethenyl)phenyl]sulfide]: the inhibition at 4 µM in assay [1] is 86%. This compound also returned an IC50 in assay [2] (setting [3]) of 250 nM.

Regarding `CCN(CC)C(=O)CN1CCN(C(=O)/C=C/c2ccc(Sc3ccc(Cl)cc3Cl)c([N+](=O)[O-])c2)CC1` [Example 40, (2,4-Dichlorophenyl)[2-nitro-4-(E-((4-(diethylaminocarbonylmethyl)piperazin-1-yl)carbonyl)ethenyl)phenyl]sulfide], in assay [1], the inhibition at 4 µM turned out to be 90%. This compound also registered an IC50 in assay [2] (setting [3]) of 280 nM.

Take `CC(C)(C)OC(=O)CN1CCN(C(=O)/C=C/c2ccc(Sc3ccc(Cl)cc3Cl)c([N+](=O)[O-])c2)CC1` [Example 42, (2,4-Dichlorophenyl)[2-nitro-4-(E-((4-(tert-butoxycarbonylmethyl)piperazin-1-yl)carbonyl)ethenyl)phenyl]sulfide]: the inhibition at 4 µM in assay [1] was determined as 56%. The IC50 in assay [2] (setting [3]) was 520 nM.

As to `O=C(O)C(=O)N1CCN(C(=O)/C=C/c2ccc(Sc3ccc(Cl)cc3Cl)c([N+](=O)[O-])c2)CC1` [Example 43, (2,4-Dichlorophenyl)[2-nitro-4-(E-((4-(carboxycarbonyl)piperazin-1-yl)carbonyl)ethenyl)phenyl]sulfide], the inhibition at 4 µM in assay [1] stood at 82%. Also, the IC50 in assay [2] (setting [3]) was 100 nM.

Take `O=C(O)CN1CCN(C(=O)/C=C/c2ccc(Sc3ccc(Cl)cc3Cl)c([N+](=O)[O-])c2)CC1` [Example 44, (2,4-Dichlorophenyl)[2-nitro-4-(E-((4-(carboxymethyl)piperazin-1-yl)carbonyl)ethenyl)phenyl]sulfide]: the inhibition at 4 µM in assay [1] is 78%. It took 70 nM to reach half-maximal inhibition in assay [2] (setting [3]) (IC50).

Turning to `CC(=O)N1CCN(C(=O)/C=C/c2ccc(Sc3ccccc3N)c([N+](=O)[O-])c2)CC1` [Example 47, (2-Aminophenyl)[2-nitro-4-(E-((4-acetylpiperazin-1-yl)carbonyl)ethenyl)phenyl]sulfide], the inhibition at 4 µM in assay [1] came to 82%. In assay [2] (setting [3]), this compound displayed an IC50 of 370 nM.

As for `CC(=O)N1CCN(C(=O)/C=C/c2ccc(Sc3ccccc3CO)c([N+](=O)[O-])c2)CC1` [Example 48, (2-Hydroxymethylphenyl)[2-nitro-4-(E-((4-acetylpiperazin-1-yl)carbonyl)ethenyl)phenyl]sulfide], the inhibition at 4 µM in assay [1] is 89%. This compound also showed an IC50 in assay [2] (setting [3]) of 200 nM.

`CC(=O)N1CCN(C(=O)/C=C/c2ccc(Sc3ccccc3C(C)(C)C)c([N+](=O)[O-])c2)CC1` [Example 51, (2-tert-Butylphenyl)[2-nitro-4-(E-((4-acetylpiperazin-1-yl)carbonyl)ethenyl)phenyl]sulfide]: the inhibition at 4 µM in assay [1] was found to be 84%. The compound also registered an IC50 in assay [2] (setting [3]) of 690 nM.

As to `CC(C)NC(=O)CN1CCN(Cc2ccccc2Sc2ccc(/C=C/C(=O)N3CCOCC3)cc2Cl)CC1` [Example 55, (2-(4-(iso-Propylaminocarbonylmethyl)piperazin-1-ylmethyl)phenyl)[2-chloro-4-(E-((1-morpholinyl)carbonyl)ethenyl)phenyl]sulfide], in assay [1], the “% inhibition @ 4 μM” value came to 82%. In assay [2] (setting [4]), the IC50 worked out at 100 nM.

As to `CCOC(=O)CN(C)Cc1ccccc1Sc1ccc(/C=C/C(=O)N2CCOCC2)cc1Cl` [Example 56, (2-((N-Ethoxycarbonylmethyl-N-methyl)aminomethyl)phenyl)[2-chloro-4-(E-((1-morpholinyl)carbonyl)ethenyl)phenyl]sulfide], the “% inhibition @ 4 μM” value in assay [1] is 83%. Also, the IC50 in assay [2] (setting [4]) was determined as 510 nM.
